The results in this text go back to US7034051B2, “Fused bicyclic carboxamide derivatives and methods of their use” (Adolor Corporation, priority 2003, dated 2006).

For assay [1], the system named is formalin-induced flinching in rats. Put plainly: In vivo formalin-induced nociception assay. Further details: species or system rat. To be noted: dose of 300 μg, i.paw. The text has this: Administration of formalin into the paw results in a localized inflammation and a pain response that is moderate in intensity and continuous in duration. Unlike many other assays of nociception, the formalin assay measures tonic pain that is a result of tissue injury, and therefore is a model which is more relevant to clinical pain states in humans (see Tjolsen et al., Pain 51: 5–17, 1992). In the rat the response to formalin-induced pain consists of spontaneous flinching behavior, characterized by paw lifting and paw shaking, and a rapid vibration of the paw after drawing it under the body. […] The early or acute phase lasts from 0–5 minutes post-formalin and is followed by a quiescent period lasting approximately 15 minutes. The tonic phase occurs from 20–35 minutes following formalin injection and is the interval where the number of flinching responses is maximal. […]
Inflammation is induced by subcutaneous injection of […] of a 5% formalin solution into the dorsal surface of the right hind paw of male Sprague-Dawley rats weighing 70–90 g. Injections of drug are given into the dorsal surface of the paw prior to formalin injection, and flinching behavior is quantitated by counting the number of responses that occur during the tonic phase of pain, lasting from 20–35 min after formalin injection. […]

Assay [2] deals with T1, cloned human δ opioid receptor (Homo sapiens, UniProt P41143).
T1 construct: expressed in transfected cells
T1 sequence (P41143 whole entry): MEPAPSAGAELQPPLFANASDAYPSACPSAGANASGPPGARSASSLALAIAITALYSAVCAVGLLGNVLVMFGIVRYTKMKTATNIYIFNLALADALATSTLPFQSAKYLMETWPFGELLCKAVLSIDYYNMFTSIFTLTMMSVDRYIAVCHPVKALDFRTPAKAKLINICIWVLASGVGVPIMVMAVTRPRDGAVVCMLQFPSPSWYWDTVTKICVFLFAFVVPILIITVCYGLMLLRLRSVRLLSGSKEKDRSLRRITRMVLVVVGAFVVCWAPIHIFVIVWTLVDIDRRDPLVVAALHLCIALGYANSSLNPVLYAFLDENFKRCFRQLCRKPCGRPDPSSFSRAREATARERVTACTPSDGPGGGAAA
Put plainly: In vitro binding assay, inhibition of [3H]diprenorphine binding to cloned human δ opioid receptor. The procedure:
IC50 values were obtained by nonlinear analysis of the data using GraphPad Prism version 3.00 for Windows (GraphPad Software, San Diego). Ki values were obtained by Cheng-Prusoff corrections of IC50 values.
After incubation at room temperature for one hour, the samples were filtered through GF/B filters that had been presoaked in a solution of 0.5% (w/v) polyethylenimine and 0.1% (w/v) bovine serum albumin in water. The filters were rinsed 4 times with 1 mL of cold 50 mM Tris HCl, pH 7.8 and radioactivity remaining on the filters determined by scintillation spectroscopy. Nonspecific binding was determined by the minimum values of the titration curves and was confirmed by separate assay wells containing 10 μM naloxone.
To determine the equilibrium dissociation constant for the inhibitors (Ki), radioligand bound (cpm) in the presence of various concentrations of test compounds was measured. The concentration to give half-maximal inhibition (EC50) of radioligand binding was determined from a best nonlinear regression fit to the following equation,
The nonlinear regression fit was performed using the program Prism® (GraphPad Software, San Diego, Calif.). The Ki values were then determined from the EC50 values by the following equation, […]

A word on the Ki: it is a dissociation constant, usually derived from enzyme kinetics or from competition with a known ligand. Read a low Ki as a stronger hold on the target.

Take `COC(=O)NCc1ccc2c(c1)CC[C@H](C(=O)N(C)[C@H](CN1CC[C@H](O)C1)c1ccccc1)O2` [Example 52, (2-{[2-({S}-3-Hydroxy-pyrrolidin-1-yl)-{S}-1-phenyl-ethyl]-(R)-methyl-carbamoyl}-chroman-6-ylmethyl)-carbamic acidmethyl ester]: the “% A (percent antagonism of formalin-induced flinching)” value in assay [1] came to 95%. The same molecule came in with an inhibition constant (Ki) in assay [2] of 1.6 µM.
